Measurements as given in US7223783B2, “Indolinone derivatives” (Theravance, Inc., priority 2001, dated 2007).
pEC50, pIC50: −log10 of the molar value. Like-named read-outs stand apart in the source and are kept apart here.

What was measured:
[1] = target: T1, VEGFR (Homo sapiens, UniProt P35968); assay: Ca2+ release assay (FLIPR) in HUVECs; format: cell-based; conditions: VEGF 40 ng/mL, highest concentration tested 1 μm
T1 construct: against the VEGFR in the FLIPR assay, HUVECs (Walkersville, Md.) were used; endogenous in cells; host or cells: HUVEC

[2] = target: T2, Flt-3 ITD (Homo sapiens, UniProt P36888, INS600HVDFREYEYD); assay: Proliferation and viability assay (MTT), cytotoxicity assay; format: cell-based; conditions: MV4-11 AML cells expressing Flt-3 ITD, 48 hours, highest concentration tested 10 μm
T2 construct: MV4-11 cells express Flt-3 ITD; endogenous in cells; host or cells: MV4-11
T2 sequence (P36888 with tags, fused parts or gaps INS600HVDFREYEYD): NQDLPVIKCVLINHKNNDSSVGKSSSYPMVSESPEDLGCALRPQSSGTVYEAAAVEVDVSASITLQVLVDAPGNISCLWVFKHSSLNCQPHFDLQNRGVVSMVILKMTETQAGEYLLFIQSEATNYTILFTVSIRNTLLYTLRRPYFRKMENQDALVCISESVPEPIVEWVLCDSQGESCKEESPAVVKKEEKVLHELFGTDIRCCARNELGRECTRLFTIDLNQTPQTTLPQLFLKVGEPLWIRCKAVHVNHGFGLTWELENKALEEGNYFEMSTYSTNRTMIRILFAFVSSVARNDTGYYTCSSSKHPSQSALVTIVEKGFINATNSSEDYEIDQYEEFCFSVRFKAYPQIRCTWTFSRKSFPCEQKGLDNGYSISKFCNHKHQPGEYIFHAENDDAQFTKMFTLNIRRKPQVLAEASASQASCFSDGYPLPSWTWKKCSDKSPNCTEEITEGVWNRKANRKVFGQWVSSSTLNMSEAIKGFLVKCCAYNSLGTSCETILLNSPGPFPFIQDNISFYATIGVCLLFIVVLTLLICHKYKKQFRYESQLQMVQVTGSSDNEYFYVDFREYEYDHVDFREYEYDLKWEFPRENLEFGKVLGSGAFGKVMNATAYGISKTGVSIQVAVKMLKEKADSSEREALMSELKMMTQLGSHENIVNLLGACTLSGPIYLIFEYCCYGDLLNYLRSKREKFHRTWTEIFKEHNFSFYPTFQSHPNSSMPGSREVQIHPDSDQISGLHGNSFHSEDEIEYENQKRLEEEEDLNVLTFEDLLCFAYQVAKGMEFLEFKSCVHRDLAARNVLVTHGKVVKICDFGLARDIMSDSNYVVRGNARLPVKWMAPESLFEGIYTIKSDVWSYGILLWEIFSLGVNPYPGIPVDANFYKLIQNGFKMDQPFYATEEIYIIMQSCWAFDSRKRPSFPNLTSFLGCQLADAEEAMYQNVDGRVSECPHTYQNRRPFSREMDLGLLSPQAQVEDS

[3] = target: T3, PDGFR (Homo sapiens, UniProt P09619); assay: Ca2+ release assay (FLIPR) in HEK cell line expressing human PDGFR; format: cell-based; set-up: expressed in transfected cells; host or cells: HEK; conditions: HEK cells expressing human PDGFR, PDGF 40 ng/mL
[4] = target: T3, PDGFR; assay: Immunoprecipitation/Western (IP/Western) receptor autophosphorylation; format: cell-based; set-up: expressed in transfected cells; host or cells: HEK PDGFR cell line; conditions: Immunoprecipitation/Western (IP) assay, HEK PDGFR cell line; highest concentration tested 1 μm
Experimental: Immunoprecipitation/Western (IP/Western)
The binding of growth factors to receptor tyrosine kinases like Flt-3 or PDGFR leads to the autophosphorylation of the receptors. The inhibition of autophosphorylation is the objective pursued with kinase inhibitors. By performing an IP/Western experiment the level of receptor autophosphorylation can be assessed directly.
5×10^6 cells (HEK PDGFR cell line for PDGFR, HEK c-Kit for c-Kit, and THP-1, HL-60 or MV4-11 for Flt-3) were incubated for 30 minutes in 2.5 mL of culture media with a defined concentration of test compound. In order to stimulate receptor autophosphorylation, growth factor (PDGF, SCF, or Flt-3 ligand respectively, 50 ng/mL, Biosource International, Camarillo, Calif.) was added for 5 minutes. The cells were then centrifuged and lysed in 500 μL lysis buffer (50 mM Tris pH 7.4, 1% NP-40, 150 mM NaCl, 1 mM EDTA, 1 mM Na3V04). The lysate is centrifuged and 10 μL of antibody against the respective receptor was added to the supernatant (anti-PDGFR (P20), anti-c-Kit (C-19), and anti-Flt-3 (S18), Santa Cruz Biotechnology, Inc.). The immunocomplexes were isolated with Protein G beads (Sigma, St. Louis, Mo.) and PAGE was performed. A Western Blot was done using an antibody against phospho-tyrosine residues (4G10, Upstate Biotechnology, Lake Placid, N.Y.). The intensity of the phospho-tyrosine signal corresponding to various drug concentrations provides a way to determine the IC50 of the test compound for the inhibition of autophosphorylation.

[5] = tested on: receptor tyrosine kinases PDGFR, c-Kit, VEGFR and Flt-3; assay: One or more of the FLIPR, MTT and IP/Western whole cell assays; format: cell-based
Experimental: In order to determine the IC50 of test compounds against the VEGFR in the FLIPR assay, HUVECs (Walkersville, Md.) were used. For the determination of IC50s against the PDGFR, a HEK cell line were used that expresses the human PDGFR. 40–50000 cells per well were plated in a 96 well plate. The cells were incubated for 3–4 hours to adhere to the plate. Subsequently, the cells were washed twice in FLIPR buffer (1×HBS, 2 mM CaCl, 10 mM HEPES, pH7.4, 2.5 mM Probenecid, 0.1% BSA). After the second wash 50 μL of the Ca^2+ sensitive dye FLUO-3 (FLUO-3 (AM) TEF Labs, 50 μg in 10 mL FLIPR buffer) was added to the remaining 50 μL buffer in each well. After loading the cells for one hour, the cells were washed twice and the test compounds were added in 50 μL as a 2× solution to the 50 μL of buffer in each well. The cells were incubated with the compounds for 30 minutes and then VEGF (40 ng/mL, BioSource International) for the VEGFR or PDGF (40 ng/mL, BioSource International) for the PDGFR was added. The change in fluorescence intensity was measured in a Fluorometric Image Plate Reader (FLIPR) (Molecular Devices).
The inhibition of mutant Flt-3 ITD is expected to affect the proliferation and viability of AML cells with this mutation. […] The plate was incubated at 37 degrees Celsius for 24 hours and, then, the optical density of the wells was determined spectrophotometrically at 550 nm. […]

[6] = Solubility in water; format: physicochemical
[7] = Pharmacokinetics in male Sprague Dawley rats; format: in vivo, rat
Experimental: To evaluate pharmacokinetics, male Sprague Dawley rats (CD strain, Charles River Laboratories, Wilmington, Mass.) were dosed with test compounds via intravenous (IV) administration, at 1 mg/kg concentration, and oral (PO) administration, at 10 mg/kg concentration. Blood samples were collected from animals pre-dose, and at 2, 5, 15, and 30 minutes, and at 1, 2, 4, 6, 8, and 24 hours post-dose. Plasma concentrations were determined by liquid chromatography-mass spectrometry (LC-MS) (MDS SCIEX API 4000, Applied Biosystems, Foster City, Calif.). Standard pharmacokinetic parameters were assessed by non-compartmental methods using the WinNonlin Version 3.2 software package (Pharsight, Mountain View, Calif.). Oral bioavailability was determined as the ratio of the area under the curve (AUC) in the graph of plasma concentration versus time for PO administration to the corresponding quantity for IV administration.

[8] = upon oral and intravenous administration; cited from earlier work
[9] = prior art statement; cited from earlier work
[10] = target: T4, Flt-3 (Homo sapiens, UniProt P36888); conditions: Abstract 497, O'Farrell et al., ASH 2001; cited from earlier work
T4 sequence (P36888 27-993): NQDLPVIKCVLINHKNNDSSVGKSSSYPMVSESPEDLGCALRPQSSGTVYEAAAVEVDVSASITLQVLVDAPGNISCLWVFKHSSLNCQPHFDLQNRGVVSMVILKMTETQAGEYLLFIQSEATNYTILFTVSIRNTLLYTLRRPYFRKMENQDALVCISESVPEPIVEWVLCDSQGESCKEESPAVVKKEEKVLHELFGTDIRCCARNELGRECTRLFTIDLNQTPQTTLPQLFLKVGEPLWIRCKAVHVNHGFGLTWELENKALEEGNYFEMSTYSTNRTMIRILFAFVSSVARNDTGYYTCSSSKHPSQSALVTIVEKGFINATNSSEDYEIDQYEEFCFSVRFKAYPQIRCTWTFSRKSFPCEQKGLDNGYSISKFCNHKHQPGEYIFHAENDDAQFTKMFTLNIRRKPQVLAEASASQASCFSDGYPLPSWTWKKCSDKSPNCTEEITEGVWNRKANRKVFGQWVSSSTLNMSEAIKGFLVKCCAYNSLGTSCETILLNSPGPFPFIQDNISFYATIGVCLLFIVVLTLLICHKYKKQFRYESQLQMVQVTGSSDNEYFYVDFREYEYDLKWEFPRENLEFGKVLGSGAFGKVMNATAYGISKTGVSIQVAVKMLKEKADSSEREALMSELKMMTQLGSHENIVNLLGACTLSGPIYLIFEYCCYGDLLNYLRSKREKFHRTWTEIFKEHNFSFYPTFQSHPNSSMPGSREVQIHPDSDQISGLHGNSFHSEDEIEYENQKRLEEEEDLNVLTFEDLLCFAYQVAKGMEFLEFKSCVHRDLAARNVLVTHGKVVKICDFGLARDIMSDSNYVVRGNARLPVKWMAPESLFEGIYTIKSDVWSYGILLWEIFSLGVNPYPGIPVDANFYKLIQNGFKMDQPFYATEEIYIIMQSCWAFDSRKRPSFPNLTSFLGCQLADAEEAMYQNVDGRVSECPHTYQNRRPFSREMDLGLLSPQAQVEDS

T1 sequence (P35968 20-1356): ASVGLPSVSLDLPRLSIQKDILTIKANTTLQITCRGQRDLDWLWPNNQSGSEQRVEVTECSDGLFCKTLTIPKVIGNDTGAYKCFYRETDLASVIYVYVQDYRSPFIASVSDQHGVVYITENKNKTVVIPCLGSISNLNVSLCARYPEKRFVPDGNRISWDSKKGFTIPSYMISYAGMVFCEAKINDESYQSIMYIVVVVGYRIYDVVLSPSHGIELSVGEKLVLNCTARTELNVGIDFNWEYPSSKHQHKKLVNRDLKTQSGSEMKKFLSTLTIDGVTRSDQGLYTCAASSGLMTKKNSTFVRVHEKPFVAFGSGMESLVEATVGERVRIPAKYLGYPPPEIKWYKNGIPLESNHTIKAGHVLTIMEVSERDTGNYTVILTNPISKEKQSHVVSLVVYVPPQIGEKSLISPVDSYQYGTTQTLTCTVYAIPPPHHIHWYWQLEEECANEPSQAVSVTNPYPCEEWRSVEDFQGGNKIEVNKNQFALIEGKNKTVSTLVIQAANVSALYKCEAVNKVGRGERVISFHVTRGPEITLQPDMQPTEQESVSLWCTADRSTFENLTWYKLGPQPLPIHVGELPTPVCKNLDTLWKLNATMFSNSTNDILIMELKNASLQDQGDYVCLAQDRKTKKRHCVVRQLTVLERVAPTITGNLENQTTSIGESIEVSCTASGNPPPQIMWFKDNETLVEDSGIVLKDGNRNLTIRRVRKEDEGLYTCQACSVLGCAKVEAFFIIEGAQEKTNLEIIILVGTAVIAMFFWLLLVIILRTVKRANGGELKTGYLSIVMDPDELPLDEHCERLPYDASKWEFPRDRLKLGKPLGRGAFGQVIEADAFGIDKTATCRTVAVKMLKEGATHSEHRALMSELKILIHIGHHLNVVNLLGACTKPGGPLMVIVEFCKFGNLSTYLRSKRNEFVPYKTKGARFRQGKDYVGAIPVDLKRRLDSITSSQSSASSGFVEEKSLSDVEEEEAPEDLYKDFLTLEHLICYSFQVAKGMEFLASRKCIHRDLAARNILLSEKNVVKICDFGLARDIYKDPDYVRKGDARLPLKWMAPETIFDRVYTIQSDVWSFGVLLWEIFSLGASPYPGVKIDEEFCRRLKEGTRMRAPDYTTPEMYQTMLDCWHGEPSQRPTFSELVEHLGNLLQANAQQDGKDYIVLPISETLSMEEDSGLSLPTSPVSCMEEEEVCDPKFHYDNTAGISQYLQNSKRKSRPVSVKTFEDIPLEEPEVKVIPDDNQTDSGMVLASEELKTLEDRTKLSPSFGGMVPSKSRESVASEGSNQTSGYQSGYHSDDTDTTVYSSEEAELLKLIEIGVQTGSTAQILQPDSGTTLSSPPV
T3 sequence (P09619 33-1106): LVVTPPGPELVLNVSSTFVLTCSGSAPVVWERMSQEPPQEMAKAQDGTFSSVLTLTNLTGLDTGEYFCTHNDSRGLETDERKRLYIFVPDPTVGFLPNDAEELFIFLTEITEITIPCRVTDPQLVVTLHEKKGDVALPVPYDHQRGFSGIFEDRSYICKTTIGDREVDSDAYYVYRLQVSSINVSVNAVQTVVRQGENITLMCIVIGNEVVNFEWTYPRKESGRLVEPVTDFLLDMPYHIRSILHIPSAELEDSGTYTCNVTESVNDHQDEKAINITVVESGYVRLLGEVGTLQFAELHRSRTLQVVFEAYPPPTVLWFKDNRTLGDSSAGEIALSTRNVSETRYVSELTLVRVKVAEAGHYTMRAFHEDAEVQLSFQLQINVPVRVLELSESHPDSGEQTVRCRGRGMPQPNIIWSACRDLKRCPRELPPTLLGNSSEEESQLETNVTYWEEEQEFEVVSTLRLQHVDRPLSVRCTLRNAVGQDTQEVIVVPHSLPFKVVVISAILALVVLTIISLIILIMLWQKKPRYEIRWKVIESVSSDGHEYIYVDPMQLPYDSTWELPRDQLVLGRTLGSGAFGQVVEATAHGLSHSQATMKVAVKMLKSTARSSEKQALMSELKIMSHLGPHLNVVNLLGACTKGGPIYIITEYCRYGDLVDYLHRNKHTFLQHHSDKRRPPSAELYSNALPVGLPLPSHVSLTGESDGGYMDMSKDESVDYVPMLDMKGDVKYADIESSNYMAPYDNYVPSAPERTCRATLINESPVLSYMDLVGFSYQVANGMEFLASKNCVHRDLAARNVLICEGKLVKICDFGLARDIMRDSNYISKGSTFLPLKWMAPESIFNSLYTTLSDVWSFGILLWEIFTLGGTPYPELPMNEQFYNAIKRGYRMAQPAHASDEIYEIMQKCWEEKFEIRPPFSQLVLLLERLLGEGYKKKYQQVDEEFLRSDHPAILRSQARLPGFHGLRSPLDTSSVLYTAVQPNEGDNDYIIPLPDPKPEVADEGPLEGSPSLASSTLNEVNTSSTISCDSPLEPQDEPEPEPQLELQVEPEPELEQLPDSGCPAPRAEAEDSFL

pIC50 [1] | VEGFR IC50 [1] | pIC50 [3] | PDGFR IC50 [3] | pIC50 [4] | PDGFR IC50 [4] | Solubility in water [6] | bioavailability ([7]; male, Sprague-Dawley, rat, plasma, oral, 10 mg/kg) | Absorption on oral administration ([7]; oral administration) | SMILES | pEC50 [2] | Flt-3 EC50 [2] | Inhibition of one or more of PDGFR, c-Kit, VEGFR and Flt-3 [5] | bioavailability [8] | Solubility in water [9] | Ability to inhibit the receptor tyrosine kinase Flt-3 [10]
7.52 | sub-micromolar activity | 7.05 | sub-micromolar activity | – | – | – | – | – | CCN1CCN(C(=O)CCc2c(C)[nH]c(C=C3C(=O)Nc4ccccc43)c2C)CC1.O=C(O)C(F)(F)F [Example 22, 3-[3,5-dimethyl-4-[3-oxo-3-(4-ethyl)piperazin-1-ylpropyl]-1H-pyrrol-2-ylmethylene]-1,3-dihydroindol-2-one, trifluoroacetate] | 6.66 | sub-micromolar activity | – | – | – | –
7.70 | sub-micromolar activity | – | – | 7.52 | sub-micromolar activity | high solubility in water | 50.6% | excellent absorption | Cc1[nH]c(C=C2C(=O)Nc3ccccc32)c(C)c1CCC(=O)N1CCNCC1.O=C(O)C(F)(F)F [Example 1, 3-[3,5-dimethyl-4-(3-oxo-3-piperazin-1-yl-propyl)-1H-pyrrol-2-ylmethylene]-1,3-dihydroindol-2-one, trifluoroacetate] | 6.62 | sub-micromolar activity | highly potent and selective inhibitor | – | – | –
– | – | – | – | – | – | – | – | – | Cc1cc(C)c(/C=C2\C(=O)Nc3ccccc32)[nH]1 [SU5416] | – | – | – | low bioavailability | poor solubility in water | –
– | No activity** | – | – | – | No activity**^# | – | – | – | Cc1[nH]c(C=C2C(=O)Nc3ccccc32)c(C)c1CCC(=O)O [SU6668, 3-[2,4-dimethyl-5-(2-oxo-1,2-dihydroindol-3-ylidenemethyl)-1H-pyrrol-3-yl]propionic acid, reference compound] | – | No activity* | – | – | – | lack the ability
